Results reported in patent US20060178372A1, “Therapeutic quinoline compounds” (AstraZeneca AB, priority 2001, published 2006).

System: not given
Test: not given
Settings: not given

| melting point | Structure (SMILES) |
| --- | --- |
| 248.4 to 249.6 °C | CN1CCN(c2cccc3c(=O)cc(C(=O)Nc4ccc(N5CCOCC5)cc4O)oc23)CC1 [Example 22, 8-(4-Methyl-piperazin-1-yl)-4-oxo-4H-chromene-2-carboxylic acid (2-hydroxy-4-morpholin-4-yl-phenyl)-amide] |
| 217 to 218 °C (dec.) | CN1CCN(c2cccc3c(=O)cc(C(=O)Nc4ccc(N5CCOCC5)cc4)oc23)CC1 [Example 1, 8-(4-methyl-1-piperazinyl)-N-[4-(4-morpholinyl)phenyl]-4-oxo-4H-chromene-2-carboxamide] |
| 233 to 234 °C | CCS(=O)(=O)N1CCN(c2ccc(NC(=O)c3cc(=O)c4cc(F)cc(N5CCN(C)CC5)c4o3)cc2)CC1 [Example 71, 6-Fluoro-8-(4-methyl-piperazin-1-yl)-4-oxo-4H-chromene-2-carboxylic acid [4-(4-ethane sulfonyl-piperazin-1-yl)-phenyl]-amide] |
| 215 °C (dec.) | CN1CCN(c2cccc3c2OC(C(=O)Nc2ccc(N4CCOCC4)cc2)CC3=O)CC1 (single isomer, unassigned) [Example 80, 8-(4-Methyl-piperazin-1-yl)-4-oxo-chroman-2-carboxylic acid (4-morpholin-4-yl-phenyl)-amide (slower running isomer)] |
| 236 to 238 °C | CCNC(=O)N1CCN(c2ccc(NC(=O)c3cc(=O)c4cc(F)cc(N5CCN(C)CC5)c4o3)cc2)CC1 [Example 81, 4-[4-({1-[6-Fluoro-8-(4-methyl-piperazin-1-yl)-4-oxo-4H-chromen-2-yl]-methanoyl}-amino)-phenyl]-piperazine-1-carboxylic acid ethylamide] |
| 216 °C (dec.) | CN1CCN(c2cccc3c2OC(C(=O)Nc2ccc(N4CCOCC4)cc2)CC3=O)CC1 (single isomer, unassigned) [Example 79, 8-(4-Methyl-piperazin-1-yl)-4-oxo-chroman-2-carboxylic acid (4-morpholin-4-yl-phenyl)-amide (faster running isomer)] |
| 215 to 216 °C | CN1CCN(c2cccc3c2OC(C(=O)Nc2ccc(N4CCOCC4)cc2)CC3)CC1 (racemic) [Example 75, racemic-8-(4-Methyl-piperazin-1-yl)-chroman-2-carboxylic acid (4-morpholin-4-yl-phenyl)-amide] |
| 205.5 to 207 °C | CN1CCN(c2cccc3c2OC(C(=O)Nc2ccc(N4CCOCC4)cc2)CC3)CC1 (single isomer, unassigned; (-)) [Example 77, (−)-8-(4-Methyl-piperazin-1-yl)-chroman-2-carboxylic acid (4-morpholin-4-yl-phenyl)-amide] |
| 245 to 246.8 °C | CN1CCN(c2cccc3c(=O)cc(C(=O)N(C)c4ccc(N5CCOCC5)cc4)oc23)CC1 [Example 25, 8-(4-Methylpiperazin-1-yl)-4-oxo-4H-chromene-2-carboxylic acid methyl-(4-morpholin-4-yl-phenyl)amide] |
| 158.1 to 158.8 °C | CN1CCN(c2cccc3c(=O)cc(-c4nc5ccc(N6CCOCC6)cc5o4)oc23)CC1 [Example 21, 8-(4-Methyl-piperazin-1-yl)-2-(6-morpholin-4-yl-benzooxazol-2-yl)-chromen-4-one] |
| 215 to 216 °C | CN1CCN(c2cccc3c2OC(C(=O)Nc2ccc(N4CCOCC4)cc2)CC3=O)CC1 (racemic) [Example 78, racemic-8-(4-methyl-piperazin-1-yl)-4-oxo-chroman-2-carboxylic acid (4-morpholin-4-yl-phenyl)-amide] |
| 234 to 236 °C | COc1cc(N2CCN(C)CC2)c2oc(C(=O)Nc3ccc(N4CCOCC4)cc3)cc(=O)c2c1 [Example 31, 6-Methoxy-8-(4-methyl-piperazin-1-yl)-4-oxo-4H-chromene-2-carboxylic acid (4-morpholin-4-yl-phenyl)-amide] |
| 195 to 197 °C | COc1cc(N2CCN(C)CC2)c2oc(C(=O)Nc3ccc(N4CCN(C(=O)CCO)CC4)cc3)cc(=O)c2c1 [Example 68, 6-Methoxy-8-(4-methyl-piperazin-1-yl)-4-oxo-4H-chromene-2-carboxylic acid {4-[4-(3-hydroxy-propanoyl)-piperazin-1-yl]-phenyl}-amide] |
| 206 to 207 °C | CN1CCN(c2cccc3c2OC(C(=O)Nc2ccc(N4CCOCC4)cc2)CC3)CC1 (single isomer, unassigned; (+)) [Example 76, (+)-8-(4-Methyl-piperazin-1-yl)-chroman-2-carboxylic acid (4-morpholin-4-yl-phenyl)-amide] |
| 195 to 199 °C | CN1CCN(c2cc(F)cc3c(=O)cc(C(=O)Nc4ccc(N5CCN(C(=O)CCO)CC5)cc4)oc23)CC1 [Example 73, 6-Fluoro-8-(4-methyl-piperazin-1-yl)-4-oxo-4H-chromene-2-carboxylic acid {4-[4-(3-hydroxy-propanoyl)-piperazin-1-yl]-phenyl}-amide] |

System: guinea pigs
Test: learned helplessness test for antidepressant/antianxiety activity
Type: in vivo
Settings: guinea pig
Excerpt: The utility of the compounds for example to treat depression may be shown via a learned helplessness test in guinea pigs, which is used extensively as correlative to antidepressant activity in humans. The learned helplessness test may be carried out as follows: Seventy male Hartley guinea pigs, each weighing about 350-425 gm are fed ad lib, and are housed under a 12-hour light/dark cycle. The procedure consists of two phases: The induction phase and the avoidance training phase. In the induction phase, subjects are placed into standard shuttle cages (20 L×16 W×21 centimeters H) which are fitted with a grid floor. Electrical stimulation (1.25 mA, 10 sec duration) is delivered to the floor of the cage every 90-sec during 1 hour daily sessions. Subjects have no opportunity to escape or to avoid shocks. Induction is conducted for 2 consecutive days.
In avoidance training, testing is also conducted in the shuttle cages, except that the subjects are not returned to the same chamber in which induction had occurred. Additionally, all cages are fitted with a partition with an arch in the center of the cage, through which animals can pass between the left and right halves of the cage. The procedure employed is a standard shuttle avoidance procedure in which a compound, conditioned stimulus (a 10-sec presentation of a tone and turning on of a lamp on the side of the cage that the guinea pig was occupying) serves to indicate presentation of electrical current to the floor of the cage. Shock is presented for a 5 sec period, 5 sec after initiation of the conditioned stimulus. Entry into the opposite side of the shuttle cage via the arched partition prior to shock onset results in the end of the trial (avoidance response). If shock is delivered, entry into the opposite side of the cage results in termination of the shock and CS (escape). Reversal of learned helplessness in the induction subjects correlates to antidepressant activity of the test compound.
Avoidance training, 45-min in duration, is conducted on 2 consecutive days, beginning 48 hr after the final induction session. Seventy subjects are assigned to 1 of 6 groups of 11-12 animals. The groups are as follows:
1) No induction group. The subjects are placed into the shuttle cages but are not given inescapable shock, the animals are subsequently trained in the avoidance procedure and the vehicle is administered;
2) Induction vehicle control group;
3) Imipramine 17.8 mg/kg;
5) 1 mg/kg compounds; and
Groups 2-6 are given induction and avoidance training sessions. Injections are administered immediately following induction sessions and 1 hour prior to avoidance training sessions. A second injection is administered 7-8 hours following the first injection, for a total of 9 injections administered over 5 days. […]

| Structure (SMILES) | activity in the learned helplessness assay |
| --- | --- |
| CCC(=O)N1CCN(c2ccc(NC(=O)c3cc(=O)c4cc(OC)cc(N5CCN(C)CC5)c4o3)cc2)CC1 [Example 44, 6-Methoxy-8-(4-methyl-piperazin-1-yl)-4-oxo-4H-chromene-2-carboxylic acid [4-(4-propionyl-piperazin-1-yl)-phenyl]-amide] | demonstrate activity |
| CCS(=O)(=O)N1CCN(c2ccc(NC(=O)c3cc(=O)c4cc(F)cc(N5CCN(C)CC5)c4o3)cc2)CC1 [Example 71, 6-Fluoro-8-(4-methyl-piperazin-1-yl)-4-oxo-4H-chromene-2-carboxylic acid [4-(4-ethane sulfonyl-piperazin-1-yl)-phenyl]-amide] | demonstrate activity |
| CCC(=O)N1CCN(c2ccc(NC(=O)c3cc(=O)c4cc(F)cc(N5CCN(C)CC5)c4o3)cc2)CC1 [Example 72, 6-Fluoro-8-(4-methyl-piperazin-1-yl)-4-oxo-4H-chromene-2-carboxylic acid [4-(4-propionyl-piperazin-1-yl)-phenyl]-amide] | demonstrate activity |
| COc1cc(N2CCN(C)CC2)c2oc(C(=O)Nc3ccc(N4CCOCC4)cc3)cc(=O)c2c1 [Example 31, 6-Methoxy-8-(4-methyl-piperazin-1-yl)-4-oxo-4H-chromene-2-carboxylic acid (4-morpholin-4-yl-phenyl)-amide] | demonstrate activity |
